# In ChEMBL document CHEMBL4359862, “Cinnamamide: An insight into the pharmacological advances and structure-activity relationships” (Eur J Med Chem, 2019):
# Columns and labels:
# [1] = tested on: Escherichia coli; assay: Antibacterial activity against Escherichia coli assessed as reduction in bacterial cell viability incubated for 24 hrs by serial dilution assay; format: functional
# [2] = tested on: Candida albicans; assay: Antifungal activity against Candida albicans assessed as reduction in fungal cell growth incubated for 48 hrs by serial dilution assay; format: functional
# [3] = tested on: DU-145; assay: Antiproliferative activity against human DU145 cells; format: functional, cell-based
# [4] = tested on: U-937; assay: Cell cycle arrest in human U937 cells assessed as increase in accumulation in G2 phase incubated for 6 hrs by propidium iodide staining based flow cytometry; format: functional; conditions: U-937, 6 h
# [5] = molecular target: Epidermal growth factor receptor (Homo sapiens, UniProt P00533); assay: Inhibition of EGFR (unknown origin)
# Chain of Epidermal growth factor receptor (P00533 whole entry): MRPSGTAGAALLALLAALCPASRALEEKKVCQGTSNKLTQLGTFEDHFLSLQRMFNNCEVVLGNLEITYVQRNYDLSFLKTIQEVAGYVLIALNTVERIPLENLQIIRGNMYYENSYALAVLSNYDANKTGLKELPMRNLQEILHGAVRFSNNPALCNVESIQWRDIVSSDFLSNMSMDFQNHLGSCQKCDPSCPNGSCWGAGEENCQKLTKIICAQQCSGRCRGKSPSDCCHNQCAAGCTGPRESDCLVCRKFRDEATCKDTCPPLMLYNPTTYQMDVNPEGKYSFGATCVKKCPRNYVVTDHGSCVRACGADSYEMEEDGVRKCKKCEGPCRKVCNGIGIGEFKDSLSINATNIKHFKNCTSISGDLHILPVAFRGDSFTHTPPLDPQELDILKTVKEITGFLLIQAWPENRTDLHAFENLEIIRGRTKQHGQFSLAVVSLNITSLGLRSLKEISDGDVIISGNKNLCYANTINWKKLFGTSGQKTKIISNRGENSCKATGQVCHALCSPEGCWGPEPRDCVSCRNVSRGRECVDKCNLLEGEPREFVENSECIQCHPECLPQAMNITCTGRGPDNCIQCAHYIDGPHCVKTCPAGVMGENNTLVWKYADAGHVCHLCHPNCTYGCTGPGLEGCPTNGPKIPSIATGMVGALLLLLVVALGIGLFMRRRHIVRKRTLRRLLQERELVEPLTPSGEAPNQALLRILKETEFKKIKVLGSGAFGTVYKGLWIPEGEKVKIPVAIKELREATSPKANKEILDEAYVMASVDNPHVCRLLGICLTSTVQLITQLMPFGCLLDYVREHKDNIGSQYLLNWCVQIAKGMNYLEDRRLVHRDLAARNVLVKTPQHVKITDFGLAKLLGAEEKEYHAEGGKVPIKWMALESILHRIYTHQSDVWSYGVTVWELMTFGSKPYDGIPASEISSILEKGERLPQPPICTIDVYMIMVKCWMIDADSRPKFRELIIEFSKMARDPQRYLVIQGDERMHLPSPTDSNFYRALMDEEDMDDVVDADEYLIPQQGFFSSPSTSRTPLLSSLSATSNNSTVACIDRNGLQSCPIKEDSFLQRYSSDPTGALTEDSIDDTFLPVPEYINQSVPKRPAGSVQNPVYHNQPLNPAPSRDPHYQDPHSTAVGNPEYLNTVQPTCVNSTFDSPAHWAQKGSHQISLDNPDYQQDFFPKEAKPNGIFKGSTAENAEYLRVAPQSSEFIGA
# [6] = molecular target: Vascular endothelial growth factor receptor 2 (Homo sapiens, UniProt P35968); assay: Inhibition of VEGFR (unknown origin)
# Chain of Vascular endothelial growth factor receptor 2 (P35968 whole entry): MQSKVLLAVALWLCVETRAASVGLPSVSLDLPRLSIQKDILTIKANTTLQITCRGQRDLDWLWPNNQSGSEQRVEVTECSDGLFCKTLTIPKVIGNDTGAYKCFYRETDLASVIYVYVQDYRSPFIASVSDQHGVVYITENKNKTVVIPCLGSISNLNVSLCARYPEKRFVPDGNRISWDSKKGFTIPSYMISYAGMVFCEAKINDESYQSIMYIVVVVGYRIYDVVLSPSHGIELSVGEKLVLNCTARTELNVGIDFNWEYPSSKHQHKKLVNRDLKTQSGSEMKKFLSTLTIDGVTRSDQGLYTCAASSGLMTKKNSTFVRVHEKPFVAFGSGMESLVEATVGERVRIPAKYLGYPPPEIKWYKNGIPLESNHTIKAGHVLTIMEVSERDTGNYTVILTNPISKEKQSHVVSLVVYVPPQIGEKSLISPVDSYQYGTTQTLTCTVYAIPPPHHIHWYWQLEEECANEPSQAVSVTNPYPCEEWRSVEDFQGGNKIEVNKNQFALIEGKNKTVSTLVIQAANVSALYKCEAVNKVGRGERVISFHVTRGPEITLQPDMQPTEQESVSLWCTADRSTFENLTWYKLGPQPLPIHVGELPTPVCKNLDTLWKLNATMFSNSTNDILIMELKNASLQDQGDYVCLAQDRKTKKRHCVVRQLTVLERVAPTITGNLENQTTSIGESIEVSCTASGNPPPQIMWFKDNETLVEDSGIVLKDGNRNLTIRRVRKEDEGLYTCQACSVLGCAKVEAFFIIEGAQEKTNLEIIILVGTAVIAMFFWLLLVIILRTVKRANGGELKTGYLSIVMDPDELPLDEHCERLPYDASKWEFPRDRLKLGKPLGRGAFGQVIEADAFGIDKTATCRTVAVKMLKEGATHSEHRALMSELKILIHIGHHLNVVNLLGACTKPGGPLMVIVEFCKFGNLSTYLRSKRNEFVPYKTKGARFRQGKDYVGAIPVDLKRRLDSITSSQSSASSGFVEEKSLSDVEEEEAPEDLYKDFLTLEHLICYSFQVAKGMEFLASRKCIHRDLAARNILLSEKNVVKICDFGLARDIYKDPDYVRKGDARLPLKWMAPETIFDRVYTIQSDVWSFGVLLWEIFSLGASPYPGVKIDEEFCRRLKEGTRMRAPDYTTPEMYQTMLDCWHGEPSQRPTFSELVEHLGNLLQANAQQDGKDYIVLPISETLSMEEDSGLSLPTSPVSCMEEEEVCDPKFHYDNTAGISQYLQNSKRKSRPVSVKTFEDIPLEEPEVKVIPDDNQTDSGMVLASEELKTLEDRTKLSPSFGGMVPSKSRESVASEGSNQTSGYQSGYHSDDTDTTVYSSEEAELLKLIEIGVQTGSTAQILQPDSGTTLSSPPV
# [7] = molecular target: T1, Amine oxidase [flavin-containing] B (Homo sapiens, UniProt P27338); assay: Inhibition of recombinant human MAOB using kynuramine as substrate preincubated with substrate for 10 mins followed by enzyme addition and measured after 20 mins by fluorescence spectrophotometry
# T1 sequence (P27338 whole entry): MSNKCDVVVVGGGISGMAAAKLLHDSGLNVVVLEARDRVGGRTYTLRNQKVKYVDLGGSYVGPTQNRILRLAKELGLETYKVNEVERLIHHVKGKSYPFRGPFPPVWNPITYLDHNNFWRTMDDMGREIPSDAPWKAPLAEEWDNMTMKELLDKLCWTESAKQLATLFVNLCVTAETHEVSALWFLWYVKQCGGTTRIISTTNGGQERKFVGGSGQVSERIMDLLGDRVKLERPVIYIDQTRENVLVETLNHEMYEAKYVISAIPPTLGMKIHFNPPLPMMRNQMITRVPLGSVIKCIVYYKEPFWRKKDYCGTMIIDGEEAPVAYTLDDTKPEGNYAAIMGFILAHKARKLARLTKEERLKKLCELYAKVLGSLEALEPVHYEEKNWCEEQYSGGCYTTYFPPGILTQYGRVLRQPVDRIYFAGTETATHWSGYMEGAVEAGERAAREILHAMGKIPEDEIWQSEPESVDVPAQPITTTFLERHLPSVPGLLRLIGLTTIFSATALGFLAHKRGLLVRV
# [8] = Antioxidant activity assessed as DPPH free radical scavenging activity by spectrophotometry; format: functional
# [9] = molecular target: T2, Tyrosinase (Agaricus bisporus) (UniProt O42713); assay: Inhibition of mushroom tyrosinase at 25 uM using L-tyrosine as substrate incubated for 30 mins relative to control
# T2 sequence (whole entry): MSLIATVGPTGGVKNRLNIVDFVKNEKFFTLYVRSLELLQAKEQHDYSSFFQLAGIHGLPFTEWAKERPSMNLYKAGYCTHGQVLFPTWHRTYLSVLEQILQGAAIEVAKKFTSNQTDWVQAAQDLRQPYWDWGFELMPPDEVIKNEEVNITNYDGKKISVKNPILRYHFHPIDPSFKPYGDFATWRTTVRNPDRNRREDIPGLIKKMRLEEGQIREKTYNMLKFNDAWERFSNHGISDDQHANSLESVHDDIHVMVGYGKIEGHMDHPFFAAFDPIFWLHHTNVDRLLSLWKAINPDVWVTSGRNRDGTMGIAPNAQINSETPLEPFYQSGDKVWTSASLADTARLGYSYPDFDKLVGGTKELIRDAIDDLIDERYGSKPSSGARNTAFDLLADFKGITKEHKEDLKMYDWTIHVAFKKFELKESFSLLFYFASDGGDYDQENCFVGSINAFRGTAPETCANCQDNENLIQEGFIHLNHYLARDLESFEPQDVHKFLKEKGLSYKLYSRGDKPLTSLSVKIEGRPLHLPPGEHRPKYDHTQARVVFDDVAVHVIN
# [10] = molecular target: Beta-secretase 1 (Homo sapiens, UniProt P56817); assay: Inhibition of recombinant human BACE 1 using Rh-EVNL-DAEFK-Quencher as substrate incubated for 60 mins by fluorescence based assay
# Chain of Beta-secretase 1 (P56817 whole entry): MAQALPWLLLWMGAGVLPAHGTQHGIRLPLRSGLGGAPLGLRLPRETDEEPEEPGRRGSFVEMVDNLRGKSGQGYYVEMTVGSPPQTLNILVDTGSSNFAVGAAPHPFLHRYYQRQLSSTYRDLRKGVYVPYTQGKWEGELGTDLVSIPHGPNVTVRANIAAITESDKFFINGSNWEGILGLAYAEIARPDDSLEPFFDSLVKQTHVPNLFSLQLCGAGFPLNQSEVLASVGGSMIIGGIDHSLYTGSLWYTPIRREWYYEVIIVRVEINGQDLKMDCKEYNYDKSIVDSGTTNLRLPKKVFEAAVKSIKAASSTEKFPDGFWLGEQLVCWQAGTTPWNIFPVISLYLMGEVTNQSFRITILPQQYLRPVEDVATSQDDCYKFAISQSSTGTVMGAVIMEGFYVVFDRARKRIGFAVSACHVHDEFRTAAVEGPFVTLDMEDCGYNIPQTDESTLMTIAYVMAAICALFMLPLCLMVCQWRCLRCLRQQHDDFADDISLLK
# [11] = tested on: MGC-803; assay: Antiproliferative activity against human MGC803 cells; format: functional, cell-based
# [12] = Inhibition of recombinant LFA1/ICAM1 (unknown origin) interaction in JY-8 cells expressing LFA1 incubated for 45 mins by fluorescence based assay; format: cell-based, Homo sapiens
# [13] = tested on: DU-145; assay: Antiproliferative activity against human DU145 cells assessed as reduction in cell viability incubated for 48 hrs by MTT assay; format: functional, cell-based; conditions: DU-145, 48 h
# [14] = Inhibition of recombinant LFA1/ICAM1 (unknown origin) interaction incubated for 1 hr by time resolved fluorimetry; design: species or system Homo sapiens
# [15] = tested on: MCF7; assay: Antiproliferative activity against human MCF7 cells assessed as reduction in cell viability incubated for 48 hrs by MTT assay; format: functional, cell-based; conditions: MCF7, 48 h
# [16] = tested on: HeLa S3; assay: Antiproliferative activity against human HeLaS3 cells assessed as reduction in cell viability incubated for 72 hrs by cell counter method; format: functional, cell-based; conditions: HeLa S3, 72 h
# [17] = molecular target: Telomerase reverse transcriptase (Homo sapiens, UniProt O14746); assay: Inhibition of telomerase (unknown origin)
# Chain of Telomerase reverse transcriptase (O14746 whole entry): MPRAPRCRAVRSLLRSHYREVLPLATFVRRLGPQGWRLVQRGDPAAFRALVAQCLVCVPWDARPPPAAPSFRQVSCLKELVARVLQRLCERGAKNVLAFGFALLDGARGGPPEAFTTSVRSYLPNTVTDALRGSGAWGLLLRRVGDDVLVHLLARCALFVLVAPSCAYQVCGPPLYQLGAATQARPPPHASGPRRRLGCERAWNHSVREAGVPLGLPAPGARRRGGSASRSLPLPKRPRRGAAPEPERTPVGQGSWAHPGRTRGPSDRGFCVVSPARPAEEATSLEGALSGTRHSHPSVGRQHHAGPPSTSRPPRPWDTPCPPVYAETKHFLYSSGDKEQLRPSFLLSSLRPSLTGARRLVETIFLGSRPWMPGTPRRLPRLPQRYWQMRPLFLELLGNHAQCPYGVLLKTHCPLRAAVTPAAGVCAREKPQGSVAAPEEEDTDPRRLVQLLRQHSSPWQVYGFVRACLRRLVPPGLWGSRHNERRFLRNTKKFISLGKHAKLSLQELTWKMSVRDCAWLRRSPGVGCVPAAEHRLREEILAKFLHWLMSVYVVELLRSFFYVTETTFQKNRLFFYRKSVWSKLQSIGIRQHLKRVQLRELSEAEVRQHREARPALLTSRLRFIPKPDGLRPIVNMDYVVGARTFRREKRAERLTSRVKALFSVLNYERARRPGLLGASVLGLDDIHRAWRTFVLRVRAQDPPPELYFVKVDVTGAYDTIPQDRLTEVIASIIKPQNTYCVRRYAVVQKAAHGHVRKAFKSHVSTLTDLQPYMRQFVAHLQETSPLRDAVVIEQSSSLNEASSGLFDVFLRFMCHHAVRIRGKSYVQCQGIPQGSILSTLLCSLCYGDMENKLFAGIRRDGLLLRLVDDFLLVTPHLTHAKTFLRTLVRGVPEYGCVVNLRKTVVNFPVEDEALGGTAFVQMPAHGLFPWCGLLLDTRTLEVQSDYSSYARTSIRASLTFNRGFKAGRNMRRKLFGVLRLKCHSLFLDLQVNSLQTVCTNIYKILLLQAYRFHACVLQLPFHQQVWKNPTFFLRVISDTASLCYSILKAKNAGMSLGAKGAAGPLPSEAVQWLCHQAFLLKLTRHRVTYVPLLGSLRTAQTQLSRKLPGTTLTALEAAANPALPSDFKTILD
# [18] = Inhibition of LFA1/ICAM1 (unknown origin) interaction; design: species or system Homo sapiens
# [19] = molecular target: T3, B2 bradykinin receptor (Cavia porcellus, UniProt O70526); assay: Displacement of [3H]BK from Bradykinin B2 Receptor in guinea pig ileum by liquid scintillation counter; format: tissue-based
# T3 sequence (O70526 whole entry): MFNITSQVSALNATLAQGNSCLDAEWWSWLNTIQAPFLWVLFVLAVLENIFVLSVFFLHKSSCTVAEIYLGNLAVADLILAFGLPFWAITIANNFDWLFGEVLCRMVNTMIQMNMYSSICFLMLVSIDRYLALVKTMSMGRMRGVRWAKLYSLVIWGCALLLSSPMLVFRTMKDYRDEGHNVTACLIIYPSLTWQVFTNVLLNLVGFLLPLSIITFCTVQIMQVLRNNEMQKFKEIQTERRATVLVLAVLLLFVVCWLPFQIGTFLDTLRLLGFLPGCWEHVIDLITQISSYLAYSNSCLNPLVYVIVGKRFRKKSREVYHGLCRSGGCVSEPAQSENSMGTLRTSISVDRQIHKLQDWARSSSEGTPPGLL
# [20] = tested on: Staphylococcus aureus; assay: Antibacterial activity against Staphylococcus aureus ATCC 6538 assessed as reduction in bacterial cell viability incubated for 24 hrs by broth microdilution assay; format: functional, organism-based; conditions: ATCC 6538, 24 h
# [21] = tested on: P388; assay: Antiproliferative activity against mouse P388 cells assessed as reduction in cell viability by MTT assay; format: functional, cell-based
# [22] = tested on: HT-29; assay: Antiproliferative activity against human HT-29 cells assessed as reduction in cell viability by MTT assay; format: functional, cell-based
# [23] = tested on: Escherichia coli; assay: Antibacterial activity against Escherichia coli assessed as reduction in bacterial cell viability by well plate method; format: functional
# [24] = tested on: Bacillus subtilis; assay: Antibacterial activity against Bacillus subtilis assessed as reduction in bacterial cell viability by well plate method; format: functional
# [25] = molecular target: T4, P-selectin (Homo sapiens, UniProt P16109); assay: Inhibition of P-selectin (unknown origin) incubated for 30 mins by ELISA
# T4 sequence (P16109 whole entry): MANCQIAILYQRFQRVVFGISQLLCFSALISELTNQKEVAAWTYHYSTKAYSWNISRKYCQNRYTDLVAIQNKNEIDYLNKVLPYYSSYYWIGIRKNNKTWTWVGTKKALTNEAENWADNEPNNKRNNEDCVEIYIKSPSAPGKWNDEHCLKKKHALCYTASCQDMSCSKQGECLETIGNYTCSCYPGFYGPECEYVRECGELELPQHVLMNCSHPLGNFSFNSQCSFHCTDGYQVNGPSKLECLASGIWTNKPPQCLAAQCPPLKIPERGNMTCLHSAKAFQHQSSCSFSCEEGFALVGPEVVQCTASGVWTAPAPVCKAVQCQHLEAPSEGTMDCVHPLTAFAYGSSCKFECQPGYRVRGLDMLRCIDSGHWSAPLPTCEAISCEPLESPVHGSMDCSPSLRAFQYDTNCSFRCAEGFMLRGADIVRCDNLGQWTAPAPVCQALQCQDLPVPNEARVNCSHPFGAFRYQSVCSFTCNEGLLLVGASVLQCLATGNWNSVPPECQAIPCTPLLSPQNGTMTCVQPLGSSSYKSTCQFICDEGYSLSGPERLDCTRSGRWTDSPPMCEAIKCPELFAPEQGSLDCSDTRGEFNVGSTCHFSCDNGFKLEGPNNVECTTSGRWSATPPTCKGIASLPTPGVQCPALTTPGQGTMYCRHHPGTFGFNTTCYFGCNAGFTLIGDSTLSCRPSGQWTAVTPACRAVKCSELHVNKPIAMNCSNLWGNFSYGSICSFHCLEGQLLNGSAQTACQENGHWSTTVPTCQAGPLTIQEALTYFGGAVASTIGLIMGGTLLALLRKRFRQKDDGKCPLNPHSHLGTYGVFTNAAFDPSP
smiles,measurement,setting,value
CN(C)C(=O)/C=C/c1ccccc1,log(1/MIC),[1],2.43
same,log(1/MIC),[2],2.43
O=C(/C=C/c1ccc(O)cc1)N1Cc2ccccc2[C@@H](OCc2ccccc2)[C@@H]1CO,IC50,[3],2080 nM
O=C(/C=C/c1ccccc1)N1CCCCC1,log(1/MIC),[1],2.43
same,log(1/MIC),[2],2.43
COc1ccc(/C=C/C(=O)NC23CC4CC(CC(C4)C2)C3)c2ccccc12,IC50,[4],7.1 µM
COc1cc(/C=C/C(=O)Nc2cc3c(Nc4ccc(F)c(Cl)c4)ncnc3cc2O[C@@H]2CCOC2)cc(OC)c1OC,IC50,[5],9 nM
same,IC50,[6],3.6 nM
COc1cccc(/C=C/C(=O)Nc2cc(OC)c(OC)c(OC)c2)c1,IC50,[4],8 µM
O=C(/C=C/c1ccc(O)cc1)NCCc1c[nH]c2ccc(O)cc12 [N-P-COUMAROYL SEROTONIN],EC50,[7],1200 nM
O=C(/C=C/c1ccc(O)c(O)c1)NCCc1c[nH]c2ccc(O)cc12 [N-CAFFEOYLSEROTONIN],EC50,[8],8.1 µM
O=C(/C=C/c1ccc(O)cc1O)NC1CCCC1,inhibition,[9],94.1%
O=C(/C=C/c1ccccc1)NCCc1cc2cc(O)ccc2[nH]1,IC50,[10],86.7 µM
O=C(/C=C/c1ccccc1)Nc1ccc([N+](=O)[O-])cc1,log(1/MIC),[1],2.43
same,log(1/MIC),[2],2.43
O=C(/C=C/c1ccc(O)cc1O)N1CCOCC1,inhibition,[9],95.7%
CN1CCN(C(=O)/C=C/c2ccc(O)cc2O)CC1,inhibition,[9],94.4%
CCCc1n[nH]c(C(N)=O)c1NC(=O)/C=C/c1ccccc1,IC50,[11],3.44 µM
COc1ccccc1Sc1ccc(/C=C/C(=O)N2CCC(C(=O)O)CC2)c(C(F)(F)F)c1C(F)(F)F,IC50,[12],0.1 nM
C=CCOc1cc(/C=C/C(=O)Nc2cc(OC)c(OC)c(OC)c2)ccc1N/C=C\C(=O)c1ccc(OC)c([N+](=O)[O-])c1,IC50,[13],8.91 µM
O=C(O)C1CCCN(C(=O)/C=C/c2ccc(Sc3ccc4c(c3)OCCO4)c(C(F)(F)F)c2)C1 (stereo unspecified),IC50,[14],25 nM
COc1ccc(/C=C/C(=O)Nc2cc3c(Nc4ccc(F)c(Cl)c4)ncnc3cc2O[C@@H]2CCOC2)cc1,IC50,[5],9 nM
same,IC50,[6],3.6 nM
CC(C)(C)NC(=O)/C=C/c1ccccc1 [N-TERT-BUTYLCINNAMAMIDE],IC50,[15],13.4 µM
O=C(O)C1CCN(C(=O)/C=C/c2ccc(Sc3ccc4c(c3)OCCO4)c(C(F)(F)F)c2C(F)(F)F)CC1,IC50,[12],0.5 nM
O=C(/C=C/c1ccc(O)cc1O)Nc1ccccc1,inhibition,[9],93.7%
C=CCOc1cc(/C=C/C(=O)Nc2cc(OC)c(OC)c(OC)c2)ccc1N/C=C\C(=O)c1cc(N)c(OC)c(OC)c1,IC50,[13],7.48 µM
CCCCCCCCCCCCNC(=O)/C=C/c1ccccc1 [N-DODECYLCINNAMAMIDE],IC50,[15],11.1 µM
COc1ccc(/C=C/C(=O)N2C[C@H]3C[C@@]34C2=CC(=O)c2[nH]c(C)c(Cl)c24)cc1,IC50,[16],0.029 nM
CCCc1n[nH]c(C(N)=O)c1NC(=O)/C=C/c1ccco1,IC50,[11],3.01 µM
same,IC50,[17],1020 nM
CC(=O)N1CCN(C(=O)/C=C/c2ccc(Sc3ccc4c(c3)OCCO4)c(Cl)c2)CC1,IC50,[18],40 nM
COc1ccc(/C=C/C(=O)N2C[C@H]3C[C@@]34C2=CC(=O)c2[nH]c(C)c(Br)c24)cc1,IC50,[16],0.065 nM
CNC(=O)c1ccc(/C=C/C(=O)NCC(=O)N(C)c2ccc(Cl)c(COc3cccc4ccc(C)nc34)c2Cl)cn1,IC50,[19],0.46 nM
CCCc1n[nH]c(C(N)=O)c1NC(=O)/C=C/c1cc(OC)c(OC)c(OC)c1,IC50,[11],4.24 µM
COc1cc(/C=C/C(=O)NNC(=O)c2ccccc2)cc(OC)c1OC,IC50,[20],85.2 µM
CCc1ccccc1Sc1ccc(/C=C/C(=O)N2CCN(C(C)=O)CC2)cc1[N+](=O)[O-],IC50,[12],65 nM
COc1cc(/C=C/C(=O)NCCc2cc(OC)c(O)c(OC)c2)ccc1O,IC50,[21],4 µM
same,IC50,[22],4 µM
COc1ccc(/C=C/C(=O)N2CCOCC2)c(OC)c1OC,MIC,[23],6.12 µM
same,MIC,[24],6.12 µM
COc1cc(/C=C/C(=O)N2CCOCC2)cc(OC)c1OC,MIC,[23],25 µM
same,MIC,[24],25 µM
CC(=O)N1CCN(C(=O)/C=C/c2ccc(Sc3ccccc3C(C)C)c([N+](=O)[O-])c2)CC1 [A-286982],IC50,[14],35 nM
CCCCCCCCCCCCCCCCNC(=O)/C=C/c1ccc(-c2[nH]c(-c3ccc(C4=NOC(C(=O)O)C4)cc3)nc2-c2ccc(/C=C/C(=O)O)cc2)cc1 (stereo unspecified),IC50,[25],300 nM
CC(=O)N1CCN(C(=O)/C=C/c2ccc(Sc3ccc(Cl)cc3Cl)c([N+](=O)[O-])c2)CC1,IC50,[14],90 nM
